The source made the active and inactive calls.
Assays:
[1] = target: T1, Adenosylmethionine-8-amino-7-oxononanoate aminotransferase (Mycobacterium tuberculosis, UniProt P9WQ81); assay: Mycobacterium tuberculosis BioA enzyme inhibitor Measured in Biochemical System Using Plate Reader - 2163-02_Inhibitor_Dose_CherryPick_Activity.; format: functional, Mycobacterium tuberculosis UT205
T1 sequence (P9WQ81 whole entry): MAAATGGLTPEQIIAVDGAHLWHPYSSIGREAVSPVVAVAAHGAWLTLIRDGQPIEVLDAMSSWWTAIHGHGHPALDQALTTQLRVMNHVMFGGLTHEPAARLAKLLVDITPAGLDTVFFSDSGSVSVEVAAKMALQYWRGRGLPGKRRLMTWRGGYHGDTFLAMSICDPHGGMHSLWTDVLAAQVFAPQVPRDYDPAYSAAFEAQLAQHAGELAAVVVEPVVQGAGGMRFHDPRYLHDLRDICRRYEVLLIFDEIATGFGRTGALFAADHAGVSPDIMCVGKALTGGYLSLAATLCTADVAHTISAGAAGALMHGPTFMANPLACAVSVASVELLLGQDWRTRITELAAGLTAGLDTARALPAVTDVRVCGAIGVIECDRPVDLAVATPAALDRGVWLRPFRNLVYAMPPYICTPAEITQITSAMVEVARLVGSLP

[2] = test system: Streptococcus sp. 'group A'; assay: growth inhibition of control SK(-) GAS strain, dose response, counter-screen for streptokinase expression inhibitor project, luminescence, kanamycin, BacTiterGlo, confirmation (AID 1900); format: functional, organism-based
Streptokinase A = target: T2, Streptokinase A (Streptococcus pyogenes serotype M1, UniProt P10520); assay: S. pyogenes streptokinase expression inhibitors, potency, dose response, plasminogen activation absorbance, OD405 (AID 1914); format: functional, Streptococcus pyogenes M1 GAS;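 further: secreted streptokinase activity via plasminogen activation per viability signal from cell pellet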
T2 sequence (P10520 whole entry): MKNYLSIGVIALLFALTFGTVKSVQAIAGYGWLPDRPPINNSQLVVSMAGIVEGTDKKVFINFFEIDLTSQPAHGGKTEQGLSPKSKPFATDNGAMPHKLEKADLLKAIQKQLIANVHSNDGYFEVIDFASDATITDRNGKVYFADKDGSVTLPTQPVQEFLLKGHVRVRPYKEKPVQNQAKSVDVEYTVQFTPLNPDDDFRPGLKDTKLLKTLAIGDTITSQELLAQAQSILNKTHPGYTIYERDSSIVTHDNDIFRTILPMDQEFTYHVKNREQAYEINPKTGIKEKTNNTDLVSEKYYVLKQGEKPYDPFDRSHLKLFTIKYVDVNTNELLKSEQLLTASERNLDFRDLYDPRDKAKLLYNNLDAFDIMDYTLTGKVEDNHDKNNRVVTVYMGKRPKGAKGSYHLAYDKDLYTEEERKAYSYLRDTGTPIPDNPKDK

Streptococcus = assay: Group A Streptococcus viability loss, dose response, counter-screen for streptokinase expression inhibitor project, luminescence, BacTiterGlo (AID 1915); format: functional, organism-based;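 further: potency for reduction of bacterial viability or growth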
[3] = Luminescence-based cell-based high throughput dose response assay to identify activators of the DAF-12 from the parasite S. stercoralis (ssDAF-12).; format: functional
[4] = target: T3, Oxysterols receptor LXR-beta (Homo sapiens, UniProt P55055); assay: LXR agonists, Gal4 luciferase reporter, dose response, counter-screen for ssDAF-12 agonist project, cell-based, luminescence, HEK293, S. stercoralis campaign (AID 720737); format: functional; settings: read-out: IC50 (the source's name)
T3 sequence (P55055 whole entry): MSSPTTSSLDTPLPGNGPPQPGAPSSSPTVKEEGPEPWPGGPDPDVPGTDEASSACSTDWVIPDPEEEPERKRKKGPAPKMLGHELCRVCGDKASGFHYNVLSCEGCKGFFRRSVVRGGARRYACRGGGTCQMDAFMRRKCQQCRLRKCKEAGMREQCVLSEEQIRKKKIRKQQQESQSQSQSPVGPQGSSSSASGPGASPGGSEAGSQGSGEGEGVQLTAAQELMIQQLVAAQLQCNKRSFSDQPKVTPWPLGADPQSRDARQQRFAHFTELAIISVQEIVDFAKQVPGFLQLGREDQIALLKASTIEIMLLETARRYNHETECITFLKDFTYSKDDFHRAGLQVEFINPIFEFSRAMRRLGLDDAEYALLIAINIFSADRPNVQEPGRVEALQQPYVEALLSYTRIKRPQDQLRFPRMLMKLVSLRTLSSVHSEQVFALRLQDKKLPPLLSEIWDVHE

[5] = M. tuberculosis H37Rv growth inhibitors, H37Rv strain (AID 1626); format: functional
H9c2 = assay: cells; format: functional, cell-based; settings: Rattus norvegicus, H9c2, Myocardium;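 further: confirmatory concentration-response retest of ultra-high-throughput screening hits for modulation of myocardial damage; cell death induced by hydrogen peroxide oxidative stress; compound pretreatment for 60 min then peroxide exposure for 2 h; potency is for protecting the cells against peroxide damage rather than for killing them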
[6] = target: Disintegrin and metalloproteinase domain-containing protein 17 (Homo sapiens, UniProt P78536); assay: ADAM17 protease inhibitors, dose response, counter-screen for ADAM10 exosite inhibitor project, biochemical, quenched FRET substrate (AID 743253)
Chain of Disintegrin and metalloproteinase domain-containing protein 17 (P78536 whole entry, the tested form may be a part): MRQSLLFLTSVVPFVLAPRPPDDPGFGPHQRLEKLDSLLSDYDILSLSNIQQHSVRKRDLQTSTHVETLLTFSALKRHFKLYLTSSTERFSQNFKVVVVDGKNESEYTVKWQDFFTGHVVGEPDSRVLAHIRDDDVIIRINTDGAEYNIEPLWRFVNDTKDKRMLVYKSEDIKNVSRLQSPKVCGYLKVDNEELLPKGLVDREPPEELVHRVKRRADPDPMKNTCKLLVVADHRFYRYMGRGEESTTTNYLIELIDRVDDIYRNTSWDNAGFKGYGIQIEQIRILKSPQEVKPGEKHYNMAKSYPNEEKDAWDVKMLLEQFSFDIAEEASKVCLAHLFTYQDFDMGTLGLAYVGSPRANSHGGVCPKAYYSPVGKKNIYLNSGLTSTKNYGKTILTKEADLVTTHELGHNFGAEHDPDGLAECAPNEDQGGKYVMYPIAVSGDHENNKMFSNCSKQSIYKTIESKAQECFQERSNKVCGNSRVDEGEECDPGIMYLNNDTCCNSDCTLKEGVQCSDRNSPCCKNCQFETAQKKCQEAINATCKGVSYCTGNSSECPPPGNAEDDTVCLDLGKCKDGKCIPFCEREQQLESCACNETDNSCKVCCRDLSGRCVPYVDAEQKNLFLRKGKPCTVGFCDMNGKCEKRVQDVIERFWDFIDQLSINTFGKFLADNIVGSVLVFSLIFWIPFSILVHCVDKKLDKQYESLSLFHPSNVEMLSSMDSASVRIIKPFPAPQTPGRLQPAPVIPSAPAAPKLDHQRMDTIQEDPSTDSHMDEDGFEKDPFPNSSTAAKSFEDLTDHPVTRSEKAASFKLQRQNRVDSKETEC

[7] = target: T4, Mannose-6-phosphate isomerase (Homo sapiens, UniProt P34949); assay: human PMI inhibitors, high substrate, primary screen, biochemical, fluorescence intensity, high mannose 6-phosphate (AID 1220)
T4 sequence (P34949 whole entry): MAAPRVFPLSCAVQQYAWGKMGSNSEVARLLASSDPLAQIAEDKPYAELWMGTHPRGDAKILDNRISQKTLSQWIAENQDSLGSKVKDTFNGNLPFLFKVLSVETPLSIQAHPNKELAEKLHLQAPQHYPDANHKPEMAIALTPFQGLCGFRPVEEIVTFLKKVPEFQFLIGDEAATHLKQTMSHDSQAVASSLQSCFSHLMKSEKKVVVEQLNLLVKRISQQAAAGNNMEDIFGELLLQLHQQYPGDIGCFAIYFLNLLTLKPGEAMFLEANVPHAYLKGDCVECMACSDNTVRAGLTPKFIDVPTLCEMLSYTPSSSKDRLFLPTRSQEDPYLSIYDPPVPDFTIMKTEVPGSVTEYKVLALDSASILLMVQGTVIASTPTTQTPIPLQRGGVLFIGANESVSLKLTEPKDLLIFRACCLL

[8] = inhibitors of firefly luciferase expression or activity, dose response, H4 neuroglioma cells, luminescence (AID 1990); format: functional, cell-based
BJ [9] = assay: cytotoxicity toward BJ-TERT fibroblasts, dose response, cell-based, RAS-independent, luminescence (AID 1933); format: functional; settings: Homo sapiens
[10] = Luminescence Cell-Based Dose Response HTS to Identify Inhibitors of 5'UTR Stem-Loop Driven Prion Protein mRNA Translation in H4 Neuroglioblastoma Cells. [Related pubchem assays: 1827 (Project Summary), 1813 (Primary HTS)]; format: functional
[11] = inhibitors of SNCA 5'UTR-driven reporter translation, confirmation, H4 neuroglioma cells, luminescence (AID 1988); format: functional, cell-based
BJ [12] = assay: cells; format: functional, cell-based; settings: Homo sapiens
BJ [13] = assay: cytotoxicity toward BJ-TERT-LT-ST fibroblasts, dose response, cell-based, RAS-independent, luminescence (AID 1935); format: functional; settings: Homo sapiens;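 further: BJ fibroblasts immortalized with TERT plus LT and ST oncogenes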
[14] = cytotoxicity toward DRD oncogenic fibroblasts, dose response, cell-based, non-viral oncogenic, luminescence (AID 1934); format: functional; settings: Homo sapiens
[15] = A549 cell cytotoxicity, dose response, cytotoxicity control, plate reader, cherry-pick, antagonist series (AID 743412); format: functional, cell-based
[16] = HepG2 cell cytotoxicity, dose response, cytotoxicity control, plate reader, cherry-pick, antagonist series (AID 743416); format: functional, cell-based
[17] = LGR2 antagonists, dose response, cell-based, HEK293, CRE-luciferase reporter, cherry pick, set 2 (AID 743343); format: functional;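 further: transfected cells were stimulated with diluted bursicon conditioned medium after compound addition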
[18] = MC4R antagonists, dose response, counter-screen for LGR2 antagonist project, cell-based, plate reader, cherry pick (AID 743444); format: functional;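 further: transfected HEK 293 cells stimulated with alpha-MSH peptide; potency of inhibitors of the alpha-MSH evoked signal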
[19] = HEK293 cell cytotoxicity, dose response, cytotoxicity control, plate reader, cherry-picked samples (AID 743446); format: functional, cell-based
[20] = target: T5, Polyadenylate-binding protein 1 (Homo sapiens, UniProt P11940); assay: PABP1 MLLE–PAM2 interaction inhibitors, dose response, miRNA deadenylation inhibitor project, biochemical, fluorescence polarization, Cy5-PAM2 peptide, secondary (AID 602260); format: functional; settings: read-out: IC50_Mean
T5 sequence (P11940 whole entry): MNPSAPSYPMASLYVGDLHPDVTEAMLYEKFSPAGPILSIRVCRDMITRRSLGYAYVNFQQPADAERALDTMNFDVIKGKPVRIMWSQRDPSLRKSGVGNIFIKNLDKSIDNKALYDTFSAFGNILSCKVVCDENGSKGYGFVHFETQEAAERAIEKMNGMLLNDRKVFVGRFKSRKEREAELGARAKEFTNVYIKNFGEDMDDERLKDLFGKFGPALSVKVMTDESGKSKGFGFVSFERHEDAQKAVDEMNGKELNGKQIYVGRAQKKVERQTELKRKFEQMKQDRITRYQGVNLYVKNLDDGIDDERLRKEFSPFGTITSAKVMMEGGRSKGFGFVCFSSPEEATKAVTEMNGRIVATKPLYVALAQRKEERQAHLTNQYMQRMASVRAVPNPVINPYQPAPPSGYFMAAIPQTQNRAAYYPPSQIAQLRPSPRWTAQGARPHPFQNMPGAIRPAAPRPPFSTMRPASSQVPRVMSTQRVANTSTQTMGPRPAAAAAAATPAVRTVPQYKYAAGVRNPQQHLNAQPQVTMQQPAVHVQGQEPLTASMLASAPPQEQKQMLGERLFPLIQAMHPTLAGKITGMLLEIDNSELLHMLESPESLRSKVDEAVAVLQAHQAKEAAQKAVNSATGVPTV

[21] = target: T5, Polyadenylate-binding protein 1; assay: PABP1 MLLE–PAM2 binding inhibitor potency, dose response, biochemical, fluorescence polarization, FITC-PAM2 peptide (AID 602259); format: functional; settings: read-out: IC50_Mean
Paired box protein Pax-8 = Paired box protein Pax-8 (Homo sapiens, UniProt Q06710); assay: inhibitors of PAX8-driven TPO luciferase reporter, dose response, RMG-I cells, cherry-pick (AID 687027); format: functional, cell-based;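 further: luciferase reporter driven by Pax8 target thyroperoxidase promoter measured by SteadyGlo luminescence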
Chain of Paired box protein Pax-8 (Q06710 whole entry): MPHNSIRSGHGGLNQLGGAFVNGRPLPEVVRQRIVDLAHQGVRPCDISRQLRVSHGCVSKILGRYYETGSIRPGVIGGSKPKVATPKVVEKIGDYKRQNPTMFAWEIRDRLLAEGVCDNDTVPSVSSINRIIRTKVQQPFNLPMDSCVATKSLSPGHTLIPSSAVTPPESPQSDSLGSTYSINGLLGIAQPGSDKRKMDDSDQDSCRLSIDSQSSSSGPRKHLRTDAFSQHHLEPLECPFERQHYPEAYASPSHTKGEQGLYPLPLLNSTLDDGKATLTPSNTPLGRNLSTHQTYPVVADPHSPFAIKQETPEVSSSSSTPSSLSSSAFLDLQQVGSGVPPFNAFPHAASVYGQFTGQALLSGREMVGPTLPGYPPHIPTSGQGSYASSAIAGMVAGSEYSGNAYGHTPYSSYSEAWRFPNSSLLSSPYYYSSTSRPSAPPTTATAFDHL

[22] = NIH:OVCAR-3 ovarian cancer cell cytotoxicity, dose response, PAX8 inhibitor project, plate reader, dry powder samples (AID 743044); format: functional, cell-based
[23] = IGROV1 ovarian cancer cell cytotoxicity, dose response, PAX8 inhibitor project, plate reader, dry powder samples (AID 743043); format: functional, cell-based; settings: IGROV-1
[24] = non-specific cell cytotoxicity, dose response, cytotoxicity control for PAX8 inhibitor project, plate reader, dry powder samples (AID 743021); format: functional, cell-based
[25] = cytotoxicity in OVCAR8 ovarian cancer cells, dose response, PAX8 project, cell-based, plate reader, dry powder samples (AID 743197); format: functional; settings: OVCAR-8

SMILES: O=C(c1ccc2c(c1)OCO2)N1CC[C@@H]2[C@H](CO)Nc3ccc(-c4ccc(F)cc4)cc3[C@@H]21
- AC50 [1]: 1.4 µM (active)

SMILES: Oc1c(Cl)cc(Cl)cc1/C=N\c1cc(C(F)(F)F)ccc1N1CCc2ccccc2C1
- EC50 [2]: 4.75 µM (active)
- EC50 (Streptokinase A): 47.7 µM (active)
- EC50 (Streptococcus): 11.8 µM (active)
- IC50 [3]: > 67.5 µM (inactive)
- EC50 [4]: > 67.5 µM (inactive)

SMILES: CCOC(=O)c1ccc2c(c1)nc(SCc1cn3ccsc3n1)n2CC
- AC50 [1]: 1.16 µM (active)

SMILES: CCOC(=O)/C(C#N)=C/c1cn(CCOc2ccccc2)c2ccccc12
- IC50 [3]: > 67.6 µM (inactive)
- EC50 [4]: > 67.6 µM (inactive)

SMILES: Nc1nc2c(s1)COc1ccccc1-2
- IC50 [5]: > 100 µM (active)

SMILES: O=C(Nc1nc2ccccc2s1)C1c2ccccc2Oc2ccccc21
- IC50 [5]: > 100 µM (active)

SMILES: CCOC(=O)c1c(N)sc(C(N)=O)c1C
- AC50 [1]: 5.1 µM (active)

SMILES: CCOC(=O)c1ccc(NC(=O)CCNC(=O)c2ccc([N+](=O)[O-])cc2)cc1
- IC50 [5]: > 100 µM (active)

SMILES: O=C1OCCN1C(=O)[C@H]1[C@H](c2ccc([N+](=O)[O-])cc2)C(c2ccc(F)cc2)=NN1c1ccc(Br)cc1
- IC50 (H9c2): > 79 µM (inactive)
- IC50 [6]: > 69.5 µM (inactive)

SMILES: O=C(CCNc1ccc(Cc2ccncc2)cc1)c1ccc([N+](=O)[O-])cc1
- IC50 [7]: 15.8 µM (active)
- IC50 [3]: > 67.5 µM (inactive)
- EC50 [4]: > 67.5 µM (inactive)

SMILES: CCOC(=O)c1cnc(Nc2nc3ccccc3o2)nc1C
- EC50 [8]: 0.382 µM (active)
- EC50 (BJ [9]): 11.1 µM (inconclusive)
- EC50 [10]: 0.35 µM (active)
- EC50 [11]: 0.278 µM (active)
- EC50 (BJ [12]): 17 µM (active)
- EC50 (BJ [13]): > 150 µM (inconclusive)
- EC50 [14]: 11.7 µM (active)
- AC50 [15]: 16.9 µM (active)
- AC50 [16]: 5.13 µM (active)
- AC50 [17]: 1.11 µM (active)
- AC50 [18]: 1.56 µM (active)
- AC50 [19]: 51.2 µM (active)

SMILES: Nc1cccnc1Sc1cccc(Cl)c1
- IC50 [7]: > 50 µM (not active)
- IC50 [20]: > 66 µM (inactive)
- IC50 [21]: > 66 µM (inactive)

SMILES: COC(=O)c1cccc(NC(=O)c2ccc(S(=O)(=O)N(C)c3ccccc3OC)cc2)c1
- AC50 [15]: 22.7 µM (active)
- AC50 [16]: 28.9 µM (active)
- AC50 [17]: 6.56 µM (active)
- AC50 [18]: 7.98 µM (active)
- AC50 [19]: 35.8 µM (active)

SMILES: Oc1nc2ccccc2n1C1CCN(C(CCc2ccccc2)c2nnnn2C2CCCCC2)CC1 (centres undefined)
- AC50 [15]: 15.8 µM (active)
- AC50 [16]: 30.6 µM (active)
- AC50 [17]: 20.3 µM (active)
- AC50 [18]: 14.1 µM (active)
- AC50 [19]: 12.8 µM (active)

SMILES: Fc1ccc(-c2ccc3c(c2)C2CC3CCN2)cc1 (centres undefined)
- AC50 [1]: 1.25 µM (active)

SMILES: Cc1nn(-c2ccccc2)c(Cl)c1/C=N/O
- IC50 [5]: > 100 µM (active)

SMILES: COc1ccc(NC(=O)Nc2ccc3c(c2)C(=O)N([C@H](C)CO)C[C@@H](C)[C@H](CN(C)Cc2ccc(C(F)(F)F)cc2)OCCCC[C@H](C)O3)cc1
- AC50 (Paired box protein Pax-8): 5.71 µM (active)
- AC50 [22]: 20.5 µM (active)
- AC50 [23]: 23 µM (active)
- AC50 [24]: 70 µM (active)
- AC50 [25]: 33.1 µM (active)

SMILES: OC[C@@H]1[C@H](c2ccc(-c3ccc(F)cc3)cc2)[C@@H]2CN(CCC(F)(F)F)CCCCN12
- AC50 (Paired box protein Pax-8): 34.9 µM (active)
- AC50 [22]: 25.2 µM (active)
- AC50 [23]: 30 µM (active)
- AC50 [25]: 47.5 µM (active)
